Assay results as given in patent publication US9890176B2, “Mannose derivatives for treating bacterial infections” (Vertex Pharmaceuticals Incorporated, priority 2013, dated 2018).

Tests used:
[1] = Mouse Feces Stability Assay; type: in vitro ADME; details: 100 uM in mouse feces supernatant, pH 6.5, 37° C.
Experimental: The mouse feces stability assay can be used to measure the stability of FimH antagonists in an environment that mimics the gut. Fresh mouse feces samples from a number of animals (at least 4) are homogenized with 10 volumes (w/v) of 100 mM potassium phosphate buffer (pH 6.5) using a Stomacher device. The feces mixture is then centrifuged 5 min at 2000 g and the supernatant is collected for incubation. Compounds to be tested are spiked at 100 uM in the feces supernatant and incubated at 37° C. up to 6 hours. The enzymatic reaction is stopped by adding 9 volumes of acetonitrile containing 0.1% formic acid and an internal standard. The mixture is centrifuged and the supernatants are analyzed by HPLC-MS/MS to assess percentage of parent remaining relative to a control sample.

[2] = tested on: bacterial strain LF82 binding to the glycoprotein BSA-(Mannose)3; experiment: Bacterial Binding Assay (BBA); type: cell-based, Escherichia coli; details: read-out: Bacterial Binding Assay IC50
Method in brief: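 Luciferase-tagged E. coli LF82 grown overnight at 37° C without shaking, then added at 2×10^8 bacteria/mL (10^7 per well) to wells coated with 0.5-2 μg/mL BSA-(Man)3 and blocked with 2% BSA. Compound in 0.2% BSA/D-PBS; binding 40-75 min at room temperature. Washed; bound bacteria read by luciferase luminescence; IC50.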

[3] = target: T1, carbohydrate recognition domain of the protein FimH (M1-T179) (Escherichia coli, UniProt P08191); experiment: Thermal Shift Assay; type: binding, E. coli; details: 5.6 μM protein, 56 μM ligand; DMSO control as reference; ± standard error of the mean (number of repeats)
T1 construct: domain of the protein FimH (M1-T179) with an uncleavable C-terminus 6-His tag; made in house; host or cells: E. coli (pET21b plasmid)
Experimental: The carbohydrate recognition domain of the protein FimH (M1-T179) with an uncleavable C-terminus 6-His tag is cloned in a pET21b plasmid and expressed in E. coli and purified to homogeneity. The thermal stabilization of the protein upon ligand binding is measured in a 96-well format on a ViiA™ 7 (Life Technologies, Carlsbad, Calif.) RT-PCR instrument. The assay is conducted in duplicate in 20 mM Tris pH 7.4 and 150 mM NaCl at a final concentration of 5.6 μM and 56 μM for protein and ligand, respectively. An environmentally-sensitive dye (Applied Biosystems Protein Thermal Shift™ Dye (P/N 4461141)) is added to each well to a final ratio of 1:1000. Plates are spun at 1000×g for 1 minute and incubated at room temperature for 10 minutes. Thermal stability of protein with and without ligand is measured from 45° C. to 85° C. at a scan rate of 0.05° C./sec. The resulting data is analyzed using Protein Thermal Shift™ Software (version 1.1) with DMSO control used as reference.

[4] = Human Feces Stability Assay; type: in vitro ADME; details: 100 uM in human feces supernatant (3 donors), pH 6.5, 37° C.
Experimental: The human feces stability assay ca be used to measure the stability of FimH antagonists in an environment that mimics the gut. Fresh human feces samples from 3 donors are homogenized with 10 volumes (w/v) of 100 mM potassium phosphate buffer (pH 6.5) using a Stomacher device. The feces mixture is then centrifuged 5 min at 2000 g and supernatant is collected for incubations. Compounds to be tested are spiked at 100 uM in feces supernatant and incubated at 37° C. up to 24 hours. The enzymatic reaction is stopped by adding 9 volumes of acetonitrile containing 0.1% formic acid and internal standard. The mixture is centrifuged and the supernatants are analysed by HPLC-MS/MS to assess percentage of parent remaining relative to a control sample.

[5] = Mouse Excretion Study Following FimH Antagonist Oral Dosing; type: in vivo; details: 10 mg/kg orally, collection up to 72 h
Experimental: Mice are dosed 10 mg/kg orally (10 mL/kg; 0.5% methocel) with FimH antagonists and urine and feces are collected on ice up to 72 h in excretion cages. Post-collection, feces samples are diluted with 10 volumes of water and homogenized using a Stomacher device. Feces mixture and urine samples are then quenched with acetonitrile containing an internal standard, centrifuged, and the supernatants are then diluted with 1 volume of water prior to analysis by HPLC-MS/MS in SRM mode.

T1 sequence (P08191 22-179 limits assumed): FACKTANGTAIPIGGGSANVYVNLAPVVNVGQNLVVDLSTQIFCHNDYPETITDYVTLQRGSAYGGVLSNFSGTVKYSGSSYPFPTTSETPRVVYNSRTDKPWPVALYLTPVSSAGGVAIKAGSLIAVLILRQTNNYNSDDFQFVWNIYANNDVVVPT

| Structure (SMILES) | IC50 [2] [nM] | Delta Thermal melt [3] | further results |
| --- | --- | --- | --- |
| CNC(=O)c1cccc(-c2ccc(O[C@H]3O[C@H](CO)[C@@H](O)[C@H](O)[C@@H]3F)c(C(F)(F)F)c2)c1 [Example 4, 3-[4-[(2R,3S,4S,5S,6R)-3-fluoro-4,5-dihydroxy-6-(hydroxymethyl)tetrahydropyran-2-yl]oxy-3-(trifluoromethyl)phenyl]-N-methyl-benzamide] | 470 ± 32 | 5.6 (1) ° C. | In vitro mice feces stability - % Parent remaining at 6 h [1]: 108% |
| CNC(=O)c1cccc(-c2ccc(O[C@H]3O[C@H](CO)[C@@H](O)[C@H](F)[C@@H]3O)cc2)c1 [Example 11, 4′-(((2R,3R,4S,5R,6R)-4-fluoro-3,5-dihydroxy-6-(hydroxymethyl)tetrahydro-2H-pyran-2-yl)oxy)-N-methyl-[1,1′-biphenyl]-3-carboxamide] | 14000 | 2.6 (1) ° C. |  |
| COC(=O)c1cc(C(=O)OC)cc(-c2ccc(O[C@H]3O[C@H](CO)[C@@H](O)[C@H](O)[C@@H]3F)cc2)c1 [Example 9, Dimethyl 5-[4-[(2R,3S,4S,5S,6R)-3-fluoro-4,5-dihydroxy-6-(hydroxymethyl)tetrahydropyran-2-yl]oxyphenyl]benzene-1,3-dicarboxylate] |  | 4.39 ± 0.11 (2) ° C. |  |
| Cc1cc(=O)oc2cc(O[C@H]3O[C@H](CO)[C@@H](O)[C@H](O)[C@@H]3F)ccc12 [Example 10, 7-[(2R,3S,4S,5S,6R)-3-fluoro-4,5-dihydroxy-6-(hydroxymethyl)tetrahydropyran-2-yl]oxy-4-methyl-chromen-2-one] |  | 3.405 ± 0.105 (2) ° C. |  |
| CNC(=O)c1cccc(-c2ccc(O[C@H]3O[C@H](CO)[C@@H](O)[C@H](O)[C@@H]3F)cc2)c1 [Example 7, 3-[4-[(2R,3S,4S,5S,6R)-3-fluoro-4,5-dihydroxy-6-(hydroxymethyl)tetrahydropyran-2-yl]oxyphenyl]-N-methyl-benzamide] | 8620 ± 1300 | 3.86 ± 0.09 (2) ° C. |  |
| COc1cc(Br)ccc1O[C@H]1O[C@H](CO)[C@@H](O)[C@H](O)[C@@H]1F [Example 5, (2R,3S,4S,5S,6R)-6-(4-bromo-2-methoxy-phenoxy)-5-fluoro-2-(hydroxymethyl)tetrahydropyran-3,4-diol] |  | 1.8 (1) ° C. |  |
| CNC(=O)c1cccc(-c2ccc(O[C@H]3O[C@H](CF)[C@@H](O)[C@H](O)[C@@H]3O)cc2)c1 [Example 12, 4′-(((2R,3S,4S,5S,6S)-6-(fluoromethyl)-3,4,5-trihydroxytetrahydro-2H-pyran-2-yl)oxy)-N-methyl-[1,1′-biphenyl]-3-carboxamide] |  | 0.06 ± 0.11 (2) ° C. | In vitro mice feces stability - % Parent remaining at 6 h [1]: 118% |
| CNC(=O)c1cccc(-c2ccc(O[C@H]3O[C@H](CO)[C@@H](O)[C@H](O)[C@@H]3O)c(C)c2)c1 [A] |  |  | In vitro mice feces stability - % Parent remaining at 6 h [1]: 0%; In vitro human feces stability - % Parent remaining at 24 h [4]: 35%; % Oral dose recovered intact in mice feces [5]: 8.4%; % Oral dose recovered intact in mice urine [5]: 0.20% |
| Cc1cc(Br)ccc1O[C@H]1O[C@H](CO)[C@@H](O)[C@H](O)[C@@H]1F [Example 1, (2R,3S,4S,5S,6R)-6-(4-bromo-2-methyl-phenoxy)-5-fluoro-2-(hydroxymethyl)tetrahydropyran-3,4-diol] |  | 3 (1) ° C. |  |
| CNC(=O)c1cccc(-c2ccc(O[C@H]3O[C@H](CO)[C@@H](O)[C@H](O)[C@@H]3F)c(C)c2)c1 [Example 6, 3-[4-[(2R,3S,4S,5S,6R)-3-fluoro-4,5-dihydroxy-6-(hydroxymethyl)tetrahydropyran-2-yl]oxy-3-methyl-phenyl]-N-methyl-benzamide] | 750 ± 141 | 4.905 ± 0.195 (2) ° C. | In vitro mice feces stability - % Parent remaining at 6 h [1]: 108% |
| OC[C@H]1O[C@H](Oc2ccc(Br)cc2C(F)(F)F)[C@@H](F)[C@@H](O)[C@@H]1O [Example 3, (2R,3S,4S,5S,6R)-6-[4-bromo-2-(trifluoromethyl)phenoxy]-5-fluoro-2-(hydroxymethyl)tetrahydropyran-3,4-diol] |  | 3.2 (1) ° C. |  |
| Cc1cc(-c2cccc([N+](=O)[O-])c2)ccc1O[C@H]1O[C@H](CO)[C@@H](O)[C@H](O)[C@@H]1F [Example 2, (2R,3S,4S,5S,6R)-5-fluoro-2-(hydroxymethyl)-6-((3-methyl-3′-nitro-[1,1′-biphenyl]-4-yl)oxy)tetrahydro-2H-pyran-3,4-diol] | 1150 ± 350 | 6.01 (1) ° C. |  |
| CNC(=O)c1cccc(-c2ccc(O[C@H]3O[C@H](CO)[C@@H](O)[C@H](O)[C@]3(C)O)c(C)c2)c1 [Example 13, N,3′-dimethyl-4′-(((2R,3S,4S,5S,6R)-3,4,5-trihydroxy-6-(hydroxymethyl)-3-methyltetrahydro-2H-pyran-2-yl)oxy)-[1,1′-biphenyl]-3-carboxamide] | 15 ± 2 | 10.71 ± 0 (2) ° C. |  |
| CNC(=O)c1cccc(-c2ccc(O[C@H]3O[C@H](CO)[C@@H](O)[C@H](O)[C@@H]3F)c(OC)c2)c1 [Example 8, 3-[4-[(2R,3S,4S,5S,6R)-3-fluoro-4,5-dihydroxy-6-(hydroxymethyl)tetrahydropyran-2-yl]oxy-3-methoxy-phenyl]-N-methyl-benzamide] | 5400 ± 200 | 4 (1) ° C. |  |
